How the values were obtained:
[1] = target: T1, HRHN-GAL (yeast GAL4 DNA binding domain without receptor sequences) (Saccharomyces cerevisiae, UniProt P04386); experiment: GAL4 reporter transactivation assay in CV-1 cells, control vector without receptor; format: cell-based, monkey; conditions: for Fold activation, HRHN-GAL: reporter 0.42:vector 0.00875, no PGC-1a
T1 construct: expressed in transfected cells; host or cells: CV-1

ERR = experiment: GAL4-ERR reporter assay in CV-1 cells, potency with versus without PGC-1a; format: cell-based; conditions: activated ERR at lower doses in the presence of PGC-1a
Procedure: Additional compounds were tested for their effects on ERR activation (Tables 3-6). DY159, DY162, DY163 and DY164 as well as DY131 can activate all three ERRs (ERRα/β/γ) in the presence of PGC-1a. […] Therefore, these compounds have two novel features yet to be reported: a) they are selective ERR modulators or coactivator-selective ligands, i.e., they activate ERR better in the presence of PGC-1a then the other coactivators that are normally present in CV-1 cells; and b) these are the first synthetic compounds reported to ACTIVATE ERRα. Previously reported compounds repress the constitutive activity of ERRα (see Willy et al., supra).
Referring to Tables 1-6, cell based transactivation assays were performed in CV-1 cells as described. See Wang, H., Chen, J., Hollister, K., Sowers, L. C., Forman, B. M., Endogenous bile acids are ligands for the nuclear receptor FXR/BAR, Mol Cell 1999, 3, 543-553. ERR activity was assayed with a GAL4 reporter construct and fusion proteins containing the ligand binding domains of human ERRα, human ERR β and mouse ERRγ linked to the DNA binding domain of yeast GAL4. Human ERα and ERβ were examined as full-length proteins using an estrogen receptor responsive reporter construct.
To test the effect of the compounds on ERR and ER, CV-1 cells were transiently transfected with expression vectors for the receptors along with appropriate reporter constructs according to methods known in the art. The receptors to be tested were expressed in CV-1 cells. Suitable reporter gene constructs are well known to skilled workers in the fields of biochemistry and molecular biology. All transfections additionally contained an expression vector with a cytomegalovirus promoter (pCMV-β-gal) as an internal control. Suitable constructs for use in these studies may conveniently be cloned into a cytomegalovirus expression vector (pCMV). For example, pCMV-β-gal contains the E. coli β-galactosidase gene expressed under control of the cytomegalovirus promoter/enhancer. Other vectors known in the art can be used in the methods of the present invention. […]

human ERβ = target: T2, human ERβ (Homo sapiens, UniProt Q92731); experiment: ERE-TK-luc reporter transactivation assay in CV-1 cells, full-length hERb; format: cell-based; conditions: for Fold activation, Receptor ERRβ: Table 1 second block; for Fold activation, Receptor ERRβ / Fold Activation, ERE-TK-luc, hERb: CV-1; for Fold Activation, ERE-TK-luc, hERb: Table 7, drug conc 30 μM; for Activation of ERb: specificity for ERRs
T2 construct: Human ERα and ERβ were examined as full-length proteins using an estrogen receptor responsive reporter construct; expressed in transfected cells; host or cells: CV-1
T2 sequence (Q92731 whole entry): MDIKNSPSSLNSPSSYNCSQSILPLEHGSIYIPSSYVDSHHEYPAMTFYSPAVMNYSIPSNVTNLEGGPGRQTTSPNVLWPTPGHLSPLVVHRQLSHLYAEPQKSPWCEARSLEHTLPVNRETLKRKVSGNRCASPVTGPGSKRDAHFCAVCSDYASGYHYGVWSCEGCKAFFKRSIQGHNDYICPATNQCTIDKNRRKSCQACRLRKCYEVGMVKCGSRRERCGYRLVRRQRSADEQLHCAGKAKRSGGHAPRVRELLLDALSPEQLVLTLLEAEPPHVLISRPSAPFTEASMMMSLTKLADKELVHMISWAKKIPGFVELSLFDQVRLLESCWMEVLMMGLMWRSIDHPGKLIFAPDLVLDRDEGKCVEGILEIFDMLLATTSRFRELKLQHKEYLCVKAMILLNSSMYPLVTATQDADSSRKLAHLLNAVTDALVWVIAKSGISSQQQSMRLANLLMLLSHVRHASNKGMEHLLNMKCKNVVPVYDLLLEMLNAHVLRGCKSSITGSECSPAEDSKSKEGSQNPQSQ
Procedure: (§1) Human ERα and ERβ were examined as full-length proteins using an estrogen receptor responsive reporter construct.
(§2) Suitable reporter gene constructs are well known to skilled workers in the fields of biochemistry and molecular biology. […] Other vectors known in the art can be used in the methods of the present invention.
(§3) CV-1 cells for the activation assays were grown in Dulbecco's modified Eagle's medium supplemented with 10% resin charcoal-stripped fetal bovine serum, 50 U/ml penicillin G and 50 μg/ml streptomycin sulfate (DMEM-FBS) at 37° C. in 5% CO2. One day prior to transfection, cells were plated to 50-80% confluence using phenol red free DMEM-FBS.

[2] = test system: estrogen receptor responsive reporter construct; experiment: Estrogen receptor responsive reporter in CV-1 cells without receptor (control of Table 1); format: cell-based; conditions: Table 1 second block
Procedure: as §1, §2, §3

[3] = reporter 0.42:vector 0.00875:PGC-1a 0.035, 0.3 μM
[4] = reporter 0.42:vector 0.00875:PGC-1a 0.035, 1 μM
[5] = reporter 0.42:vector 0.00875:PGC-1a 0.035, 3 μM (first 3 μM column)
[6] = reporter 0.42:vector 0.00875:PGC-1a 0.035, 3 μM (second 3 μM column)
[7] = reporter 0.42:vector 0.00875:PGC-1a 0.035, 10 μM
[8] = reporter 0.42:vector 0.00875:PGC-1a 0.035, 30 μM

T1 sequence (P04386 1-147): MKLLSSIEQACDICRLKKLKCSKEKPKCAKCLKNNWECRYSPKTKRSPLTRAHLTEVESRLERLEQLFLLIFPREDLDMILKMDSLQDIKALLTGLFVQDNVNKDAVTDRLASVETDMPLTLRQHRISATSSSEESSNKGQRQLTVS

Structure (SMILES) | Fold activation, HRHN-GAL ([1]; 0.3 μM) [fold] | Fold activation, HRHN-GAL ([1]; 1 μM) [fold] | Fold activation, HRHN-GAL ([1]; 3 μM (first 3 μM column)) [fold] | Fold activation, HRHN-GAL ([1]; 3 μM (second 3 μM column)) [fold] | Fold activation, HRHN-GAL ([1]; 10 μM) [fold] | Fold activation, HRHN-GAL ([1]; 30 μM) [fold] | Fold activation, HRHN-GAL + PGC-1a [1, 3] [fold] | Fold activation, HRHN-GAL + PGC-1a [1, 4] [fold] | Fold activation, HRHN-GAL + PGC-1a [1, 5] [fold] | Fold activation, HRHN-GAL + PGC-1a [1, 6] [fold] | Fold activation, HRHN-GAL + PGC-1a [1, 7] [fold] | Fold activation, HRHN-GAL + PGC-1a [1, 8] [fold] | Potency of ERR activation with versus without PGC-1a (ERR) | Fold Activation, ERE-TK-luc, hERb (human ERβ) [fold] | Activation of ERb (human ERβ) | further results
CCN(CC)c1ccc(C=NNC(=O)c2ccc(O)cc2)cc1 [DY131, 4-Hydroxy-benzoic acid (4-diethylamino-benzylidene)-hydrazide] | 1.03 | 0.94 | 0.74 | 0.74 | 0.77 | 0.79 | 1.00 | 0.65 | 0.72 | 1.09 | 0.69 | 0.81 | more potent activators in the presence of PGC-1a than without | 1.19 | do not activate | Fold activation, Receptor — (first block) ([1]; Table 1, reporter 0.42:receptor vector 0.035:PGC-1a 0.035, 3 μM): 0.8 fold; Fold activation, Receptor — (first block) ([1]; Table 1, reporter 0.42:receptor vector 0.035:PGC-1a 0.035, 10 μM): 0.7 fold; Fold activation, Receptor — (first block) ([1]; Table 1, reporter 0.42:receptor vector 0.035:PGC-1a 0.035, 30 μM): 0.9 fold; Activity on ERβ (activate or inhibit) (human ERβ; CV-1 reporter assay): failed to activate or inhibit; Fold activation, Receptor ERRβ (human ERβ; 3 μM): 1.1 fold; Fold activation, Receptor ERRβ (human ERβ; 10 μM): 1.0 fold; Fold activation, Receptor ERRβ (human ERβ; 30 μM): 1.2 fold; Fold activation, Receptor — (second block) ([2]; 3 μM): 1.0 fold; Fold activation, Receptor — (second block) ([2]; 10 μM): 1.1 fold; Fold activation, Receptor — (second block) ([2]; 30 μM): 1.0 fold
Cc1cccc(C=NNC(=O)c2ccc(O)cc2)c1 [DY159, 4-Hydroxy-benzoic acid (3-methyl-benzylidene)-hydrazide] | – | 0.95 | 1.08 | 1.25 | 1.24 | 1.26 | – | 1.31 | 1.05 | 1.03 | 1.39 | 1.11 | more potent activators in the presence of PGC-1a than without | 1.93 | do not activate | melting point: 241.9 °C
O=C(NN=Cc1ccccc1)c1ccc(O)cc1 [DY162, 4-Hydroxy-benzoic acid benzylidene-hydrazide] | 1.14 | 1.07 | 1.02 | 1.12 | 1.26 | 1.25 | 1.26 | 1.17 | 1.13 | 1.97 | 1.68 | 1.93 | more potent activators in the presence of PGC-1a than without | 1.74 | do not activate | –

— US9085550B2, “Ligands for estrogen related receptors and methods for synthesis of said ligands” (CITY OF HOPE, priority 2005, dated 2015)
